Measurements published in article PMC7904827 (Scientific Reports, 2021).
Where a name gives a salt, the structure may show the parent alone.

Key:
[1] = In vivo pharmacokinetic study of GK-667 in rabbits, noncompartmental analysis; design: species or system rabbit
Protocol: GK-667 was freshly dissolved in saline (5 mg/mL) before each administration. New Zealand White male rabbits (n = 6, ∼3.8 kg) received GK-667 (5 mg/kg) administered as a single slow (2 min) intravenous dose bolus to the ear marginal vein. Blood (∼1 mL) was sampled from veins on the contralateral ear at selected time points after drug administration (5 min to 9 h) into BD Vacutainers (BD Biosciences, Plymouth, UK) containing lithium heparin. Collected blood samples were immediately centrifuged (2 min, 3000 rpm, 4 °C), and plasma samples were harvested directly.
Plasma samples taken 0 to 20 min after GK-667 administration were immediately processed by the addition of formic acid and precipitation with ice-cold methanol. The supernatants were then analyzed for all analytes, including the intact prodrug. This was essential to ensure the appropriate determination of highly labile GK-667 at the first sampling intervals, and the whole procedure was validated for this purpose. […] Thus, all following plasma samples were immediately shock-frozen in liquid nitrogen and stored at -80 °C until analysis.
For drug administration and blood sampling, light anesthesia was induced in rabbits with a mixture of ketamine (25 mg/kg, i.m.) and midazolam (2.5 mg/kg, i.m.); sedation was then maintained with midazolam when needed. The blood withdrawn from the animals was compensated with an appropriate volume of sterile saline. All in vivo experiments and procedures were approved and supervised by the Animal Welfare Committee of the Faculty of Medicine in Hradec Kralove (Charles University), and the experiments were performed in compliance with the ARRIVE guidelines.
Standard noncompartmental analysis was performed using Kinetica software (version 4.0, Thermo Fisher Scientific Inc., USA). The population parameter estimation for nonlinear mixed effect models was conducted using Monolix version 2019R2 software (Antony, France: Lixoft SAS, 2019, http://lixoft.com/products/monolix/). The stochastic approximation expectation maximization (SAEM) algorithm coupled with Markov Chain Monte Carlo (MCMC) without the use of approximations (linearization) was used for the estimation of the likelihood. For evaluation of the goodness-of-fit, the following plots were assessed: observed versus individual predicted concentrations, weighted residuals versus time and weighted residuals versus predictions. Individual parameter values were obtained as empirical Bayes estimates. A visual predictive check with 1000 simulated data sets was performed.

[2] = ICRF-193 release from the prodrugs during incubation in DMEM (thermomixer, UHPLC-MS/MS); type: in vitro ADME; settings: 100 µM, 37 °C
Protocol: All samples were spiked with the internal standards. DMEM or buffer (100 μL) was diluted with an ice-cold methanol/water mixture (20:80, v/v), mixed and analyzed. Plasma (50 μL) was precipitated with ice-cold methanol (1:5, v/v), mixed (20 s) and centrifuged (10 min, 10,000 rpm, 4 °C). NVCM pellets (4.8 × 10^6 cells) were precipitated with ice-cold methanol (250 μL), mixed (20 s), sonicated in a cold ultrasonic bath (75 s), mixed (30 s) and centrifuged (10 min, 10,000 rpm, 4 °C). The supernatants from the plasma and NVCM extractions were filtered (0.22 μm, PVDF) prior to analysis. For assay of the prodrugs, the samples were acidified with formic acid to a final concentration of 0.5%.
The samples were analyzed using two UHPLC instruments both coupled to a triple quadrupole mass spectrometer. […] Positive ionization mode was used in both methods. The analytical columns tested are characterized in the Supplementary materials.
The prodrugs (100 μM) were incubated (37 °C) in DMEM in a thermomixer (Thermomixer Comfort, Eppendorf, Germany) under gentle mixing (350 rpm) for 48 h.
(§1) From all of the above described experiments, samples were taken at predefined intervals, treated and immediately analyzed. All experiments were performed in four replicates, and the results are expressed as the mean ± SD.

[3] = ICRF-193 release from GK-667 in rabbit plasma in vitro; type: in vitro ADME; settings: GK-667 10 and 100 µM, 37 °C
Protocol: as §1

[4] = Incubation in DMEM in an incubator (5% CO2, 37 °C) without cells; type: in vitro ADME; settings: 100 µM
Protocol: Herein, incubations were performed in DMEM (100 μM) in a CelCulture Incubator (5% CO2, 37 °C, ESCO, USA) to mimic the conditions of the in vitro cytoprotective assay, and the results were compared to those from the saline buffer (116 mM NaCl, 5.3 mM KCl, 1.2 mM MgSO4, 1 mM CaCl2, 1.13 mM NaH2PO4, 5 mM glucose, and 20 mM HEPES, pH = 7.4).
as §1

C[C@H]([C@H](C)N1CC(=O)N(COC(=O)CN)C(=O)C1)N1CC(=O)N(COC(=O)CN)C(=O)C1 [GK-667, meso-2,3-bis(4-(2-aminoacetoxymethyl)-3,5-dioxopiperazin-1-yl)butane tetrahydrochloride]
Cmax ([1]; male, New Zealand White, rabbit, plasma, iv, 5 mg/kg, rabbits n = 6, GK-667 5 mg/kg i.v., NCA): 2700 nM | Tmax ([1]; male, New Zealand White, rabbit, plasma, iv, rabbits n = 6, GK-667 5 mg/kg i.v., NCA, read-out: Tmax (converted)): 5 min | concentration at 5 min ([1]; male, New Zealand White, rabbit, plasma, iv, rabbits, GK-667 5 mg/kg i.v., 5th min, read-out: mean plasma concentration of the prodrug): 2700 nM | concentration at 10 min ([1]; male, New Zealand White, rabbit, plasma, iv, rabbits, GK-667 5 mg/kg i.v., 10th min, read-out: mean plasma concentration of the prodrug): 400 nM | concentration at 20 min ([1]; male, New Zealand White, rabbit, plasma, iv, rabbits, GK-667 5 mg/kg i.v., 20 min, in all but one animal, read-out: plasma concentration of the prodrug (below LLOQ)): < 100 nM | time to essentially complete clearance of the parent compound from plasma ([1]; rabbits, after injection of GK-667): ≤ 10 min | conversion to the inactive metabolite ICRF-193met ([2]; AUC0–3 h and AUC0–48 h, compared with the other prodrugs): lowest conversion | AUC0–3 h of ICRF-193 concentrations ([2]; GK-667 compared with GK-678): no statistically significant differences | AUC0–48 h of ICRF-193 concentrations ([2]; GK-667 compared with GK-678): significantly higher | metabolism of the prodrug in plasma [3]: rapidly metabolized | degradation in DMEM without cells [4]: rapidly degraded
